Data published in US20220241259A1, “COMPOSITIONS AND METHODS USING TRIGONELLINE AND VITAMINS FOR PREVENTING OR TREATING CONDITIONS OR DISORDERS IN SKELETAL MUSCLE” (SOCIETE DES PRODUITS NESTLE S.A., priority 2019, published 2022).

Assays:
C57BL/6JRj male mice = assay: Liver NAD+ in mice after oral gavage; type: in vivo; conditions: equimolar of 300 mg/kg trigonelline, 120 minutes, compared to the control (FIG. 5)
Experimental: 10 weeks C57BL/6JRj male mice received trigonelline (sigma #T5509) or fenugreek seed extract enriched in trigonelline (40.45% trigonelline) by oral gavage (equimolar of 300 mg/kg trigonelline, n=8/group). After 120 minutes treatment, the liver was harvested and flash frozen in liquid nitrogen. NAD+ was measured in liver using an enzymatic method adapted from Dall, M., et al., Mol Cell Endocrinol, 2018. 473: p. 245-256.

[1] = tested on: Human Skeletal Muscle Myotubes (HSMM); assay: Colorimetric NAD+ quantification in differentiated human primary myoblasts; type: cell-based; conditions: 16 h, different doses, compared to the control (FIG. 4)
Experimental: After one day, the differentiation is induced by a medium change for 4 days. Cells were treated with synthetic trigonelline monohydrate (FIG. 4A) or with Fenugreek seed extract enriched in trigonelline containing 40.45% trigonelline (FIG. 4B) for 16 h at difference doses. NAD+ was measured using colorimetric NAD+ quantification assay (Biovision NAD+/NADH Quantitation Colorimetric Kit #k337-100).

[2] = tested on: Human Skeletal Muscle Myotubes (HSMM); conditions: 6 h
Experimental: Human primary myoblasts from two different donors were seeded in 6 well plates at a density of 200′000 cells per well in skeletal muscle growth medium (SKM-M, AMSbio). After one day, the differentiation was induced by a medium change for 4 days using differentiation culture medium (Gibco No. 31330-028). Cells were treated with isotopically labelled trigonelline (^13C carbonyl; 3^2H on methyl) for 6 h.
Cell extracts were separated on a Vanquish UHPLC+ focused LC system (Thermo Scientific) with a hydrophilic liquid chromatography (HILIC) iHILIC-Fusion(P) column (Hilicon) carrying the dimensions 150×2.1 mm, 5 μm and a guard column (iHILIC-fusion(P), Hilicon) in front. The separation of metabolites was achieved by applying a linear solvent gradient in normal phase at 0.25 mL/min flow rate and 35° C. of temperature. As mobile phase, solvent A was water with 10 mM ammonium acetate and 0.04% (v/v) ammonium hydroxide, pH ˜9.3, and solvent B was acetonitrile.
The eluting metabolites were analyzed with an Orbitrap Fusion Lumos mass spectrometer (Thermo Scientific) with a heated electrospray ionization (H-ESI) source in positive and negative mode at a resolution of 60,000 at m/z of 200. Instrument control and data analysis were conducted using Xcalibur (Thermo Scientific).

C. elegans [3] = conditions: 1 mM
Experimental: C. elegans mobility test was performed using the Movement Tracker software (Mouchiroud, L. et al. Curr Protoc Neurosci 77, 8.37.1-8.37.21 (2016)). The experiments were repeated at least twice. Trigonelline treatment and experimental measurements were started at Day 1 of wild type N2 worm adulthood, in a regimen of chronic exposure till experiments termination.

C. elegans [4] = conditions: 1 mM, chronic exposure from Day 1 adulthood (FIG. 7A)
Experimental: Worm lifespan tests were performed using about 100 animals per condition and scored manually every other day. Trigonelline treatment and experimental measurements were started at Day 1 of wild type N2 worm adulthood, in a regimen of chronic exposure till experiments termination.

C. elegans [5] = conditions: 1 mM, day 8 and day 11 old worms (FIG. 7D)
From the text: 45 to 60 worms per condition were manually scored for mobility after poking. Worms that were unable to respond to any repeated stimulation were scored as dead. […] Trigonelline treatment and experimental measurements were started at Day 1 of wild type N2 worm adulthood, in a regimen of chronic exposure til experiments termination.

wild type N2 worms = conditions: 1 mM trigonelline chloride, day 8 old worms (FIG. 8)
Experimental: Absolute quantification of the mtDNA copy number in wild type N2 worms was performed by real-time PCR. Relative values for nduo-1, and act-1 were compared within each sample to generate a ratio representing the relative level of mitochondrial DNA per nuclear genome. The average of at least two technical repeats was used for each biological data point. Each experiment was performed on at least ten independent biological samples (individual worms). Trigonelline treatment with 1 mM trigonelline chloride and experimental measurements were started at Day 1 of wild type N2 worm adulthood, in a regimen of chronic exposure till experiments termination.

[6] = tested on: RW1596 (myo-3p::GFP) worms; conditions: 1 mM trigonelline chloride, 11 day old worms vs age matched control
Experimental: RW1596 (myo-3p::GFP) worms were collected at Day 1 (young adults) and at Day 11 (aged animals) for muscle integrity assessment. Worms were immobilized with tetramisole and analyzed by confocal microscopy, to assess the muscle fibers morphology shown by GFP fluorescence imaging. Trigonelline treatment with 1 mM trigonelline chloride and experimental measurements were started at Day 1 of wild type N2 worm adulthood, in a regimen of chronic exposure till experiments termination.

With `C[n+]1cccc(C(=O)O)c1.[OH-]` [chemically synthesized trigonelline] the “NAD+ content in the liver” value (C57BL/6JRj male mice) was “significant increase” and the “NAD+ content” value [1] was “significant increase”.
With `[2H]C([2H])([2H])[n+]1cccc([13C](=O)[O-])c1` [labelled trigonelline] the “relative abundance of labelled NAD+ (M+ 1)” value ([2]; labelled trigonelline 500 μm, vs naturally occurring NAD+ control (FIG. 2B)) was “increase in relative abundance of labelled NAD+ (M+ 1)”.
`C[n+]1cccc(C(=O)O)c1` [trigonelline chloride] was tested, and the “distance travelled during spontaneous mobility assay” value (C. elegans [3]; advanced aging phase, compared to control (FIG. 7C)) was “significantly increased”, the “mean speed during spontaneous mobility assay” value (C. elegans [3]; from day 1 adulthood, compared to control (FIG. 7B)) was “increased the mean speed” and the lifespan increase (C. elegans [4]) was 21%. For the same compound, the “stimulated mobility score (percentage of worms responsive to a physical stimulus)” value (C. elegans [5]) was “more responsive to a physical stimulus than the control”.
With `C[n+]1cccc(C(=O)[O-])c1` [trigonelline, 1-methylpyridin-1-ium-3-carboxylate] the “mitochondrial (nduo-1) relative to nuclear (act-1) DNA ratio” value (wild type N2 worms) was “higher than in the control group”, the “myofibrillar structure (GFP-tagged myosin)” value [6] was “improved more organized myofibrillar structure” and the “NAD+ relative concentration” value ([2]; 500 μm, HSMM from 2 donors, LC-MS, relative to control (FIG. 2A)) was “enhancement of NAD+”.
